Format in all cases: functional
The test system of experiment [1] is Plutella xylostella. Put plainly: Lethal effect on Plutella xylostella (diamondback moth) in fresh cabbage leaves assessed as mortality at 8 to 10 ug/insect measured 48 hr after treatment by topical application method.
Experiment [2] concerns Callosobruchus chinensis. Put plainly: Lethal effect on Callosobruchus chinensis assessed as mortality measured per insect after 24 hr treatment by topical application method.
Experiment [3] has as its system Plutella xylostella. Put plainly: Lethal effect on Plutella xylostella (diamondback moth) in fresh cabbage leaves assessed as mortality at 10 ug/insect measured 24 hr after treatment by topical application method.
For experiment [4], the system named is Plutella xylostella. Put plainly: Antifeedant effect in Plutella xylostella (diamondback moth) in compound treated fresh cabbage leaves assessed as feeding reduction at 66.4 ug/cm'2 by no-choice leaf disk method.
For experiment [5], the system named is Plutella xylostella. Put plainly: Lethal effect on Plutella xylostella (diamondback moth) in fresh cabbage leaves assessed as mortality measured per insect after 48 hr treatment by topical application method.
The test system of experiment [6] is Callosobruchus chinensis. Put plainly: Lethal effect on Callosobruchus chinensis assessed as mortality at 8 ug/insect measured 24 hr after treatment by topical application method.
The test system of experiment [7] is Plutella xylostella. Put plainly: Antifeedant effect in Plutella xylostella (diamondback moth) in compound treated fresh cabbage leaves assessed as feeding reduction at 106.2 ug/cm'2 by no-choice leaf disk method.

Structures are written as SMILES.

From ChEMBL document CHEMBL3046239, “Lethal and Antifeedant Substance from Rhizome of Alpinia galanga SW. (Zingiberaceae)” (1998) come the findings set out here.

What is called mortality is the share of the test organisms that died.

As to `C=C[C@H](OC(C)=O)c1ccc(OC(C)=O)cc1` [1'-ACETOXYCHAVICOL ACETATE], the mortality in experiment [1] is listed as 100%; in experiment [3], 83.3%; in experiment [6] it was 95%. Moreover, the LD50 is 3 µg in experiment [2] and 4.5 µg in experiment [5]. Moreover, the AFI in experiment [4] is given as 88.5%; in experiment [7] it was 98.8%.
